{"source": "ChEMBL document CHEMBL6096699", "about": "“Tröger's Base as a Potential Bridge to Type-I Photosensitizers: Mechanism and Antitumor Applications” (J Med Chem, 2025)", "key": {"[1]": {"assay": "Developmental toxicity in wild type AB zebrafish assessed as survival rate at 50 uM incubated for 72 hrs followed by LED light irradiation at 1.8 mW cm/2 relative to control", "design": "species or system Danio rerio", "conditions": "in vivo"}, "[2]": {"assay": "Developmental toxicity in wild type AB zebrafish assessed as effect on morphological abnormalities at 1.57 to 50 uM incubated for 72 hrs followed by LED light irradiation at 1.8 mW cm/2", "design": "species or system Danio rerio", "conditions": "in vivo, dose 1.57-50 µM"}, "[3]": {"test_system": "A549", "assay": "Induction of apoptosis in human A549 cells assessed as upregulation of cleaved Bax expression at 2.5 to 5 uM with irradiation of LED light at 1.8 mW cm/2 by Western blot analysis", "type": "functional, cell-based", "conditions": "dose 2.5-5 µM"}, "[4]": {"test_system": "A549", "assay": "Inhibition of cell migration in human A549 cells assessed as appearance of loose cells at 0.25 uM preincubated for 12 hrs followed by LED light irradiation 1.8 mW cm/2 for 2 hrs and measured after 48 hrs by wound healing assay", "type": "functional, cell-based", "conditions": "time 62.0 hrs"}, "[5]": {"test_system": "A549", "assay": "Induction of intracellular ROS generation in human A549 cells by measuring red fluorescence at 0.4 to 1.2 uM incubated for 24 hrs under dark condition by DHE based fluorescence microscopy analysis", "type": "functional, cell-based", "conditions": "dose 0.4-1.2 µM"}, "[6]": {"test_system": "A549", "assay": "Induction of apoptosis in human A549 cells assessed as downregulation of caspase-3 expression at 2.5 to 5 uM with irradiation of LED light at 1.8 mW cm/2 by Western blot analysis", "type": "functional, cell-based", "conditions": "dose 2.5-5 µM"}, "[7]": {"assay": "Induction of type-1 ROS generation in tetrahydrofuran assessed as fold increase in DHR123 fluorescence intensity at 0.5 uM followed by LED white light irradiation at 1.8 mWcm/2 for 300 sec by DCFH staining based analysis", "type": "functional"}, "[8]": {"test_system": "MCF7", "assay": "Phototoxicity against human MCF7 cells assessed as reduction in cell proliferation at 0.156 to 10 uM irradiated with LED light at 1.8 mWcm/2 for 2 hrs and measured after 24 hrs under normoxia condition by MTT assay", "type": "functional, cell-based", "conditions": "dose 0.156-10 µM, time 26.0 hrs"}, "[9]": {"assay": "Drug localization in mitochondria of human A549 cells assessed as colocalization by Mitotracker res staining based analysis", "type": "ADME"}, "[10]": {"test_system": "A549", "assay": "Inhibition of cell migration in human A549 cells assessed as appearance of blurred cells at 0.25 uM preincubated for 12 hrs followed by incubation under dark condition and measured after 48 hrs by wound healing assay", "type": "functional, cell-based", "conditions": "time 60.0 hrs"}, "[11]": {"test_system": "A549", "assay": "Inhibition of cell migration in human A549 cells assessed as appearance of blurred cells at 0.25 uM preincubated for 12 hrs followed by LED light irradiation 1.8 mW cm/2 for 2 hrs and measured after 48 hrs by wound healing assay", "type": "functional, cell-based", "conditions": "time 62.0 hrs"}, "[12]": {"assay": "Induction of type-2 ROS generation in methanol assessed as generation of single oxygen at 0.5 uM followed by Xe lamp irradiation for 5 mins by DCFH staining based analysis", "type": "functional"}, "[13]": {"assay": "Dark toxicity in human HBE cells assessed as cell viability incubated for 24 hrs in dark by MTT assay", "type": "cell-based"}, "[14]": {"assay": "Developmental toxicity in wild type AB zebrafish assessed as hatching rate at 50 uM incubated for 72 hrs followed by LED light irradiation at 1.8 mW cm/2 relative to control", "design": "species or system Danio rerio", "conditions": "in vivo"}, "[15]": {"test_system": "A549", "assay": "Activation of ERK1/2 pathway in human A549 cells assessed as effect on ERK protein expression at 2.5 to 5 uM by Western blot analysis", "type": "cell-based", "conditions": "filed as activator, dose 2.5-5 µM"}, "[16]": {"test_system": "A549", "assay": "Induction of apoptosis in human A549 cells assessed as increase in nuclear shrinkage at 2.5 to 5 uM incubated for 30 mins with irradiation of LED light at 1.8 mW cm/2 by Hoechst 33342 staining based light microscopy analysis", "type": "functional, cell-based", "conditions": "dose 2.5-5 µM"}, "[17]": {"target": "T1, c-Jun N-terminal kinase, JNK (Homo sapiens) (UniProt P45983+P53779+P45984)", "assay": "Activation of JNK pathway in human A549 cells assessed as effect on JNK protein expression at 2.5 to 5 uM by Western blot analysis", "type": "cell-based", "conditions": "filed as activator, dose 2.5-5 µM"}, "[18]": {"target": "Signal transducer and activator of transcription 3 (Homo sapiens) (UniProt P40763)", "sequence (P40763 whole entry)": "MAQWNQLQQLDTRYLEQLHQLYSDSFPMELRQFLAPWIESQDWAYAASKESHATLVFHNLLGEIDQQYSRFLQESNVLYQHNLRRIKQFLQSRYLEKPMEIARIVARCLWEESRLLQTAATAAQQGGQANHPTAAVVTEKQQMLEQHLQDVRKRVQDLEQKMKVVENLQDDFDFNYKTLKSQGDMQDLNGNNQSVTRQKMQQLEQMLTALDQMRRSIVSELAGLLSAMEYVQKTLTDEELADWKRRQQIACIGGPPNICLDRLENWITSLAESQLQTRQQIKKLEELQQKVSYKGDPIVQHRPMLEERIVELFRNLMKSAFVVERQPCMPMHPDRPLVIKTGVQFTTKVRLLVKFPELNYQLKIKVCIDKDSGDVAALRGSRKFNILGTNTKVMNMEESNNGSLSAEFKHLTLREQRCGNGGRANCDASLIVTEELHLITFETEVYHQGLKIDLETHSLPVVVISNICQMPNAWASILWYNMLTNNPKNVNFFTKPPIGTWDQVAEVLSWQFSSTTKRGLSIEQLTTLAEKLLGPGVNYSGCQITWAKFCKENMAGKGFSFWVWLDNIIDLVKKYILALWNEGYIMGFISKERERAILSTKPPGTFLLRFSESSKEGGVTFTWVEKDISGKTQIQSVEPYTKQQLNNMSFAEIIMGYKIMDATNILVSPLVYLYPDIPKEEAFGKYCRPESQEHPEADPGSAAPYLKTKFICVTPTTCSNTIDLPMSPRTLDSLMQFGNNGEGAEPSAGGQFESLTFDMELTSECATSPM", "assay": "Inhibition of STAT3 pathway in human A549 cells assessed as decrease in STAT3 protein expression at 2.5 to 5 uM by Western blot analysis", "type": "cell-based", "conditions": "dose 2.5-5 µM"}, "[19]": {"assay": "Developmental toxicity in wild type AB zebrafish assessed as effect on morphological abnormalities at 1.57 to 50 uM incubated for 72 hrs under dark condition", "design": "species or system Danio rerio", "conditions": "in vivo, dose 1.57-50 µM"}, "[20]": {"test_system": "A549", "assay": "Induction of apoptosis in human A549 cells assessed as downregulation of Bcl-2 expression at 2.5 to 5 uM with irradiation of LED light at 1.8 mW cm/2 by Western blot analysis", "type": "functional, cell-based", "conditions": "dose 2.5-5 µM"}, "[21]": {"test_system": "A549", "assay": "Activation of MAPK pathway in human A549 cells assessed as increase in MAPK phosphorylation level at 2.5 to 5 uM by Western blot analysis", "type": "cell-based", "conditions": "filed as activator, dose 2.5-5 µM"}, "[22]": {"test_system": "Mitochondrial membrane", "assay": "Induction of mitochondrial membrane potential loss in human A549 cells assessed as decrease in red fluorescence of JC-1 aggregates at 0.4 to 1.2 uM incubated for 24 hrs with irradiation of LED light at 1.8 mW cm/2 by light microscopy analysis", "type": "cell membranes", "conditions": "dose 0.4-1.2 µM"}, "[23]": {"test_system": "A549", "assay": "Activation of ERK1/2 pathway in human A549 cells assessed as increase in ERK phosphorylation level at 2.5 to 5 uM by Western blot analysis", "type": "cell-based", "conditions": "filed as activator, dose 2.5-5 µM"}, "[24]": {"target": "T1, c-Jun N-terminal kinase, JNK (Homo sapiens)", "assay": "Activation of JNK pathway in human A549 cells assessed as increase in JNK phosphorylation level at 2.5 to 5 uM by Western blot analysis", "type": "cell-based", "conditions": "filed as activator, dose 2.5-5 µM"}, "[25]": {"test_system": "A549", "assay": "Phototoxicity against human A549 cells assessed as reduction in cell proliferation at 0.156 to 10 uM irradiated with LED light at 1.8 mWcm/2 for 2 hrs and measured after 24 hrs under normoxia condition by MTT assay", "type": "functional, cell-based", "conditions": "dose 0.156-10 µM, time 26.0 hrs"}, "[26]": {"target": "Signal transducer and activator of transcription 3 (Homo sapiens) (UniProt P40763)", "assay": "Inhibition of STAT3 pathway in human A549 cells assessed as decrease in STAT3 phosphorylation level at 2.5 to 5 uM by Western blot analysis", "type": "cell-based", "conditions": "dose 2.5-5 µM"}, "[27]": {"test_system": "A549", "assay": "Inhibition of cell migration in human A549 cells at 0.25 uM preincubated for 12 hrs followed by incubation under dark condition and measured after 48 hrs by wound healing assay", "type": "functional, cell-based", "conditions": "time 60.0 hrs"}, "[28]": {"test_system": "A549", "assay": "Induction of apoptosis in human A549 cells assessed as upregulation of cleaved caspase-3 expression at 2.5 to 5 uM with irradiation of LED light at 1.8 mW cm/2 by Western blot analysis", "type": "functional, cell-based", "conditions": "dose 2.5-5 µM"}, "[29]": {"test_system": "A549", "assay": "Inhibition of cell migration in human A549 cells assessed as appearance of loose cells at 0.25 uM preincubated for 12 hrs followed by incubation under dark condition and measured after 48 hrs by wound healing assay", "type": "functional, cell-based", "conditions": "time 60.0 hrs"}, "[30]": {"test_system": "HepG2", "assay": "Phototoxicity against human HepG2 cells assessed as reduction in cell proliferation at 0.156 to 10 uM irradiated with LED light at 1.8 mWcm/2 for 2 hrs and measured after 24 hrs under normoxia condition by MTT assay", "type": "functional, cell-based", "conditions": "dose 0.156-10 µM, time 26.0 hrs"}, "[31]": {"test_system": "A549", "assay": "Antitumor activity in human A549 cells xenografted in Ab wild type Zebrafish embryos assessed as decrease in tumor growth by measuring fluorescence intensity at 2.9 to 5.8 ng preincubated for 12 hrs followed by irradiation of LED light of 1.8 mW cm/2 for 2 hrs and measured after 48 to 72 hrs", "type": "functional, cell-based", "conditions": "dose 2.9-5.8 ng, time 62-86 hrs"}}, "note": "The source made the active and inactive calls. The rule behind the calls is not given here.", "data": [{"smiles": "CCN(CC)c1ccc2cc(C(=O)/C=C/c3ccc4c(c3)CN3CN4Cc4cc(Br)ccc43)c(=O)oc2c1", "values": [{"measurement": "survival at 72 h, 50 µM", "setting": "[1]", "result": 100, "unit": "%"}, {"measurement": "Activity", "setting": "[2]", "result": "Non-toxic"}, {"measurement": "Activity", "setting": "[3]", "result": "Active"}, {"measurement": "inhibition", "setting": "[4]", "result": "Active"}, {"measurement": "Activity", "setting": "[5]", "result": "inactive"}, {"measurement": "Activity", "setting": "[6]", "result": "Active"}, {"measurement": "fold change (FC)", "setting": "[7]", "result": 25.6}, {"measurement": "Activity", "setting": "[8]", "result": "Active"}, {"measurement": "Drug uptake", "setting": "[9]", "result": "Active"}, {"measurement": "inhibition", "setting": "[10]", "result": "Active"}, {"measurement": "inhibition", "setting": "[11]", "result": "Active"}, {"measurement": "Activity", "setting": "[12]", "result": "Active"}, {"measurement": "Activity", "setting": "[13]", "result": "Toxic"}, {"measurement": "Activity", "setting": "[14]", "result": 100, "unit": "%"}, {"measurement": "Activity", "setting": "[15]", "result": "Active; Compound Showed Little Change In Protein Expression"}, {"measurement": "Activity", "setting": "[16]", "result": "Active"}, {"measurement": "Activity", "setting": "[17]", "result": "Active; Compound Showed Little Change In Protein Expression"}, {"measurement": "inhibition", "setting": "[18]", "result": "Active"}, {"measurement": "Activity", "setting": "[19]", "result": "Non-toxic"}, {"measurement": "Activity", "setting": "[20]", "result": "Active"}, {"measurement": "Activity", "setting": "[21]", "result": "Active"}, {"measurement": "Activity", "setting": "[22]", "result": "Active"}, {"measurement": "Activity", "setting": "[23]", "result": "Active"}, {"measurement": "Activity", "setting": "[24]", "result": "Active"}, {"measurement": "Activity", "setting": "[25]", "result": "Active"}, {"measurement": "inhibition", "setting": "[26]", "result": "Active"}, {"measurement": "inhibition", "setting": "[27]", "result": "Active"}, {"measurement": "Activity", "setting": "[28]", "result": "Active"}, {"measurement": "inhibition", "setting": "[29]", "result": "Active"}, {"measurement": "Activity", "setting": "[30]", "result": "Active"}, {"measurement": "Activity", "setting": "[31]", "result": "Active"}]}]}
